Data set [1] is described as follows: Fluorescence spectra and fluorescence quantum yield in MeOH. The format is physicochemical. The protocol:
The absorption spectra of (oxidopyridyl)porphyrins were recorded in HPLC grade MeOH on a Cary UV 60 (Agilent Technologies, Santa Clara, CA, USA), in a wavelength range of 300–700 nm. The fluorescence spectra in HPLC grade MeOH were recorded on a Cary Eclipse (Agilent Technologies) in a wavelength range of 500–800 nm after excitation at the Soret band wavelength (λ ~ 420 nm). The slits of the spectrometer were set to a bandpass of 5 nm for the excitation and 5 nm for the emission. To calculate the fluorescence quantum yields, the measurements were conducted on an FS5 Edinburgh Instruments spectrometer. Prior to taking the measurements, the solutions were purged with high-purity N2 for at least 15 min. The absorbance of the solutions was set to A < 0.1 at 405 nm and 550 nm, which settings were used for the excitation process. Emission was recorded from 550 to 800 nm, with slits set to the bandpass corresponding to 2 nm for the excitation, and 3 nm for the emission. Fluorescence quantum yield (ΦFL) was calculated in comparison to the tetraphenylporphyrin (TPP; ΦFL = 0.11 [23]) as a standard, according to Equation (S1) and following an equation previously described elsewhere.

Data set [2] is described as follows: Laser flash photolysis (LFP), triplet excited state properties. The data set is classed as physicochemical. Conditions: MeOH. The protocol:
Laser flash photolysis (LFP) was performed using an LP980 transient absorption spectrometer (Edinburgh Instruments) equipped with a continuous beam (or pulse mode) Xenon lamp passing through the sample. A nanosecond Nd:YAG laser (Quantel, Q-smart 450, 5 ns pulse duration, 10 Hz, excitation wavelength 355 nm) was then used to excite the sample perpendicular to the lamp beam. The laser beam energy was adjusted to below 5 mJ. The ground state absorbance of the porphyrins in MeOH was adjusted to 0.20–0.25 at 355 nm (the laser excitation wavelength) and the solutions were purged with high-purity N2 for at least 15 min prior to taking the measurements. The samples were prepared for kq determination in an air atmosphere that was N2-purged for 15 min and O2-purged for 15 min before the measurements were taken. The ground state absorption spectra of the samples were also recorded after purging the sample with N2 or O2, and after transient absorption (TAS) measurements were taken to track the differences in every step of the measurement process to ensure that no photoproducts were formed. All measurements were performed at 25 °C in 1 cm quartz cuvettes. Laser flash photolysis was used to measure the kinetics of triplet state depopulation (τT) and triplet-triplet absorption spectra, and to calculate the intersystem crossing quantum yield (ΦISC) and quenching rate constants of triplet excited states by molecular oxygen (kq). To calculate ΦISC, the first step was the calculation of the molar absorption coefficient of the triplet state using the singlet depletion method, completing the first step according to Equation (S2). The ΦISC values were estimated by using a comparative method with TPP (ΦISC = 0.87 in toluene) as the standard. The ΦISC was calculated according to Equation (S3). Triplet excited state lifetimes were determined by fitting the triplet decays to the equation for the mixed first- and second-order decay, as previously described, and the quenching rate constant of a triplet excited state by molecular oxygen was calculated using the Stern–Volmer equation (Equation (S4)).

Another data set relates to MeWo. The data set is described as follows: Photocytotoxicity, MTT assay. The format is cell-based, human. Conditions: red light 643 nm 30 min; for IC50: Homo sapiens, MeWo, light or radiation study, 6 h incubation. The method, then:
(§1) For (photo)cytotoxicity assays, stock solutions of porphyrins were prepared in DMSO and dissolved in DMEM to the final concentrations. The porphyrin incubation time was 6h. Irradiation of the cells was with red light (λ = 643 nm) for 30 min (light dose, 3.6 J/cm^2). Nonirradiated cells were used to test the dark toxicity. All measurements were performed in three individual experiments, and the results are shown as the proliferation (%) of the cells and were calculated as IC50 values.
(§2) The cytotoxicity of (oxidopyridyl)porphyrins was assessed by an MTT assay on the HDF, MeWo and A375 cell lines after 6 h of incubation with porphyrins, without irradiation, or after 30 min of irradiation with red light (λ = 643 nm), and under conditions of normoxia or hypoxia. To induce hypoxia, 100 µM of CoCl2 was added at least two hours before the porphyrins. […] Oxygen is also one of the substrates for the activity of prolyl hydroxylases; therefore, in both cases, the result is the blockage of hydroxylation of HIF-1α and, consequently, its increase and stabilisation, which, in the case of CoCl2-induced hypoxia, can be maintained for several hours.
In general terms: Tetrazolium assays rely on reduction of a dye to a coloured formazan, in cell work by metabolically active cells.

The test system of another data set is HDF. The data set is described as follows: Photocytotoxicity, MTT assay. The format is cell-based, human. The following applies: for IC50: Homo sapiens, HDF, light or radiation study, 6 h incubation, red light 643 nm 30 min. The method, then: as §1, §2
The subject of a further data set is A375. In words: Photocytotoxicity, MTT assay. The data set is classed as cell-based, human. Conditions: red light 643 nm 30 min; for IC50: Homo sapiens, A-375, light or radiation study, 6 h incubation. The protocol:
as §1, §2

The subject of another data set is MeWo cells. In words: Intracellular localisation by fluorescence microscopy with DIOC6(3). The data set is classed as cell-based, human. Conditions: 5 µM in medium, 6 h. The protocol: In the localisation tests, the cells were incubated with porphyrins and DIO6(3), a marker for mitochondria and endoplasmic reticulum (ER), which was used to investigate the colocalisation of porphyrins with the mentioned organelles. All images were analysed using the ImageJ program, while Pearson’s correlation coefficient was calculated using the CellSense program, fluorescence microscope software produced by Olympus.
To determine any potential preference for the ER and mitochondria, the localisation of (oxidopyridyl)porphyrins substituted with an alkyl chain of 9, 13 and 17 C atoms was observed by fluorescence microscopy incubation with 3,3′-dihexyloxacarbocyanine iodide (DIOC6(3)), a marker that is commonly used to target vesicle membranes, mitochondria and ER [39].

Data set [3] deals with HDF, MeWo and A375 cell lines. In words: (Photo)cytotoxicity MTT assay, statements made for all cell lines. The data set is classed as cell-based, human. Conditions: Homo sapiens, light or radiation study; irradiation 643 nm, with or without CoCl2; read-out: IC50 in all the tested cells. The method, then:
as §1, §2

Read-outs that look alike come from different tables or passages of the source.

In general, IC50 refers to the concentration needed to halve the response being measured. Take `CCCCCCCCCCCCCCCCCC(=O)Nc1ccc(-c2c3nc(c(-c4ccc[n+]([O-])c4)c4ccc([nH]4)c(-c4ccc[n+]([O-])c4)c4nc(c(-c5ccc[n+]([O-])c5)c5ccc2[nH]5)C=C4)C=C3)cc1` [TOPyP3-C17H35, 5-(4-Octadecanamidophenyl)-10,15,20-tris(1-oxido-3-pyridyl)porphyrin]: in data set [1], the Stokes shift was 2 nm. In addition, the “ΦFL (fluorescence quantum yield)” value in data set [1] (N2-purged, TPP as reference) worked out at 0.047 ± 0.002. The “λFL Q(0,0)” value in data set [1] (excitation at Soret band) stood at 648 nm. In addition, in data set [1] (excitation at Soret band), the “λFL Q(0,1)” value amounted to 713 nm. For the same compound, the “τT (lifetime of 3PS*)” value in data set [2] is reported as 0.96 ms. The t from transient absorption kinetics at 450 nm in data set [2] (N2, 355 nm laser excitation, Figure S9 inset) is 987 µs. Besides, in data set [2] (N2-purged, 25 °C), the “τT (lifetime of the triplet excited state)” value was 960 ± 30 μs. In data set [2] (Stern–Volmer), the “kq (O2) (quenching rate constant of the triplet excited state by O2)” value came out at 1.4e+09 M⁻¹ s⁻¹. Also, the “ΦISC (quantum yield of intersystem crossing)” value in data set [2] (comparative method with TPP, estimated) was 0.51. In addition, in data set [2] (singlet depletion method), the “εT-T (molar absorption coefficient of the triplet state)” value was 58 300 M^−1cm^−1. Also, the IC50 was 0.68 ± 0.19 µM with MeWo (3.6 J/cm^2, 100 μM CoCl2 at least 2 h before porphyrin, read-out: IC50 MeWo CoCl2); 0.66 ± 0.14 µM with MeWo (3.6 J/cm^2, normoxia, read-out: IC50 MeWo No CoCl2); 1.09 ± 0.29 µM in the data set on HDF (3.6 J/cm^2, 100 μM CoCl2 at least 2 h before porphyrin, read-out: IC50 HDF CoCl2); 1.31 ± 0.57 µM in the data set with HDF (3.6 J/cm^2, normoxia, read-out: IC50 HDF No CoCl2); 0.94 ± 0.15 µM in the data set with A375 (3.6 J/cm^2, 100 μM CoCl2 at least 2 h before porphyrin, read-out: IC50 A375 CoCl2); 0.77 ± 0.08 µM in the data set on A375 (3.6 J/cm^2, normoxia, read-out: IC50 A375 No CoCl2). In addition, the 50% inhibitory concentration (IC50) in data set [3] is no more than 1 µM. Further, the “SI (IC50 (HDF) / IC50 (melanoma cells)) MeWo 100 µM CoCl2” value with MeWo (CoCl2-induced hypoxia) is recorded as 1.6. In addition, in the data set with MeWo (normoxia), the “SI (IC50 (HDF) / IC50 (melanoma cells)) MeWo No CoCl2” value came out at 2.0. Besides, the “reduction in the proliferation of cells” value with HDF (1 µM, irradiation 643 nm, normoxia) is recorded as ~ 40%. Besides, in the data set on A375 (CoCl2-induced hypoxia), the “SI (IC50 (HDF) / IC50 (melanoma cells)) A375 100 µM CoCl2” value is recorded as 1.2. The “SI (IC50 (HDF) / IC50 (melanoma cells)) A375 No CoCl2” value in the data set with A375 (normoxia) is 1.7. In addition, in the data set with MeWo cells, the “solubility (porphyrin not internalised, aggregates outside the cells)” value is “low solubility”.
